# Results reported in article PMC9469084, “Unravelling the pharmacokinetics of aflatoxin B1: In vitro determination of Michaelis–Menten constants, intrinsic clearance and the metabolic contribution of CYP1A2 and CYP3A4 in pooled human liver microsomes” (Frontiers in Microbiology, 2022).
# Values joined by “and” are separate entries in the source; they are usually repeats but may differ in a detail not shown here. Equal entries are not always repeated. Where two headings read alike, the source gives them in different places. Marks after values point to notes of the source that are not given here.
# Key:
# [1] = human, microsomes
# CYP3A4 [2] = biological target: CYP3A4 (Homo sapiens, UniProt P08684); experiment: in vitro
# CYP3A4 (Homo sapiens, UniProt P08684), sequence (P08684 2-503): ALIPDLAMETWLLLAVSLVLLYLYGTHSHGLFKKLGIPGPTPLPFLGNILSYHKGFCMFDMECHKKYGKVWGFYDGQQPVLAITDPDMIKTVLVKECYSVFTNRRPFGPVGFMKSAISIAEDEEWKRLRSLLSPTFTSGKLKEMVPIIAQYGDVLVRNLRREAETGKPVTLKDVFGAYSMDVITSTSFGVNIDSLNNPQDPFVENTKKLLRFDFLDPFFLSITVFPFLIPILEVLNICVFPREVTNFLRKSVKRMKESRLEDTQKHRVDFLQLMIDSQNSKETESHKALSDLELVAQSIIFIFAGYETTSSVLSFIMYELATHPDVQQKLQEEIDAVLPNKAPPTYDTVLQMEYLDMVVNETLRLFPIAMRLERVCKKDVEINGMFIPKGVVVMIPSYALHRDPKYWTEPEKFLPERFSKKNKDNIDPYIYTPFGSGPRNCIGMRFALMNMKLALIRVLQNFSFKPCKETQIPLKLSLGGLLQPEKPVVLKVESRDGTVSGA
# Description: (§1) Substrate work solutions of AFB1 were made to achieve sample concentrations from 0.5 μM to 50 μM, for the HLM experiments. For rhCYP an extra AFB1 sample concentration of 100 μM was implemented. HLM (20 mg/ml in 250 mM sucrose) were diluted in 1.15% KCl to achieve a final protein concentration of 0.25 and 0.5 mg/ml in the samples, as based on previous linearity experiments. The stop reagents were those described in 2.1.2.
# (§2) For CYP3A4 rhCYP experiments, 50 μl of diluted supersomes at 150 pmol/ml were used instead of HLM, achieving a final concentration of 30 pmol/ml. For CYP1A2 rhCYP experiments, 50 μl of diluted EasyCYP LR bactosomes at 50 pmol/ml were used, achieving a final concentration of 10 pmol/ml.
# (§3) The same equipment, settings and procedures were used as explained in Section “LC–MS/MS (linearity experiments).” Data analysis was performed by transferring Targetlynx® data to Microsoft® Excel. Metabolite formation velocity versus substrate concentration figures were plotted with error bars, Sigmaplot version 14.5 was used for determining the Michaelis–Menten constant (Km) and maximum velocity (Vmax) by performing nonlinear regression on the figures. For AFB1 substrate depletion was measured. Nonlinear regression on sigmoidal plots, where the initial depletion rate (kdep) was plotted against AFB1 concentrations on a linear-log plot, was performed using Excel Solver ([Youdim and Dodia, 2010]).
# (§4) The CLH,u,int is multiplied by the AAF, leading to an AAF corrected CLH,u,int (CLH,u,int,AAF). The obtained Km and Vmax values of the CYP probes from rhCYPs were used to calculate intersystem extrapolation factors (ISEFs) for both Vmax and CLint (Equations 7 and 8).
# (§5) (7) VmaxISEF=Vmax,HLM/Vmax,rhCYP∗CYPabundancepmolP450/mg
# (§6) (8) CLintISEF=Vmax,HLM/Km,HLM∗10^−6/Vmax,rhCYP/Km,rhCYP∗10^−6∗CYPabundancepmolP450/mg
# (§7) CLH,u,int,AAF values of AFB1 from rhCYP experiments were multiplied with the CLint ISEF, resulting in an ISEF corrected CLH,u,int,AAF (CLH,u,int,AAF,ISEF). […] Equation 10 presents the extrapolation to the whole liver hepatic blood clearance from rhCYP experiments. The hepatic blood clearance (CLH,B) was multiplied by the blood/plasma ratio (B:P) to obtain the whole liver hepatic plasma clearance, CLH,P.
# (§8) (10) CLH,BL/h=QH∗fu,b∗CLH,u,int,AAF,ISEF/QH+fu,b∗CLH,u,int,AAF,ISEF
# (§9) Next, Km and Vmax experiments were performed in recombinant enzyme systems. […] For AFB1, where substrate depletion was analyzed, kdep was determined for different substrate concentrations in supersomes and bactosomes which was plotted against AFB1 substrate concentrations on a log-scale (Figures 3E,F). By dividing the theoretical maximal kdep by the protein concentration, the CLint was achieved from which the Vmax could be determined ([Youdim and Dodia, 2010]).
# [3] = system: pooled human liver microsomes; experiment: in vitro
# Description: (§10) A 1.15% KCl solution was made in HPLC grade water and stored at 4°C. HLM (20 mg/ml in 250 mM sucrose) were diluted in 1.15% KCl to achieve a final protein concentration of 0.1; 0.25; 0.5; 0.75 and 1 mg/ml in the samples. The stop reagent was made with 300 μl FA, 5,500 μl ACN and Ultrapure water and contained the internal standards (IS; 0.072 μM of CHL and 0.12 μg/ml of ZAN).
# (§11) Samples were prepared partially based on [Schelstraete et al. (2019a],[b)]. […] Next, 50 μl of a freshly prepared NADPH.4Na solution was added. After an incubation of 3 min, 50 μl of diluted HLM was added and they were placed back on the thermoshaker TS-100 (Biosan, Geraardsbergen, Belgium) with a rotation speed of 300 rpm and at a temperature of 37°C. After the indicated time (i.e., 5, 10, 20, 30 and 45 min), 25 μl of an ice cold stop reagent with IS, i.e., CHL for CYP probes and ZAN for AFB1, was added. For protein precipitation, 125 μl of TFA was added. Samples were centrifuged at 16,000×g for 20 min at 4°C. The centrifugal filters were discarded and the supernatant was added to 1 ml of a 0.2 M phosphate buffer. Next, 7 ml of ethyl acetate was added in order to perform a liquid–liquid extraction (LLE). Samples were extracted during 20 min on an Agitelec shaker at room temperature. For phase separation, samples were centrifuged at 2,000× g for 10 min. Subsequently, the organic phase was transferred in glass tubes and evaporated under a gentle nitrogen stream at 40°C (±5°C) using a Turbovap (Biotage, Charlotte, United States). After evaporation, samples were kept at −20°C until further analysis. Upon analysis, 250 μl of a 60/40 mobile phase A (MP A; H2O/MeOH/acetic acid (94/5/1, v/v/v) + 5 mM ammonium acetate)/mobile phase B (MP B; H2O/MeOH/acetic acid (2/97/1, v/v/v) + 5 mM ammonium acetate) mixture was added. After thorough vortexing and centrifuging for 10 min at 1,000× g, the samples were transferred to an autosampler vial. An aliquot of 5 μl was injected into the ultrahigh performance liquid chromatography (UPLC) - XEVO TQ-S (LC–MS/MS) equipment using an in-house developed and validated method.
# (§12) A Waters Acquity class I UPLC system coupled to a XEVO TQ-S tandem quadrupole mass spectrometer (MS) from Waters (Milford, MA, United States) was used for the detection and quantification. A Charged Surface Hybrid (CSH) C18 column (1.7 μm 2.1 × 100 mm) with Guard column was used for chromatographic separation. The column temperature was set at 30°C; the sample temperature at 10°C. The MP was used at a flow rate of 0.250 ml/min following a gradient program (Table 1). The total duration for a single run was 12 min. The MS was operated in the electrospray positive mode (ESI+) with multiple reaction monitoring (MRM). Source temperature and desolvation temperature were set at 130°C and 200°C. The cone gas flow was set at 150 L/h, the desolvation gas flow at 550 L/h. Data was processed using Masslynx® and Targetlynx® software from Micromass (Manchester, United Kingdom). Data analysis was performed by transferring Targetlynx® data to Microsoft Excel and Sigmaplot version 14.5. For AFB1, substrate depletion was measured. Nonlinear regression on sigmoidal plots where the initial depletion rate (kdep) was plotted against AFB1 concentrations on a linear-log plot, was performed using Excel Solver ([Youdim and Dodia, 2010]).
# as §1
# (§13) For CYP3A4 rhCYP experiments, 50 μl of diluted supersomes at 150 pmol/ml were used instead of HLM, achieving a final concentration of 30 pmol/ml.
# [4] = system: CYP3A4 (MDZ), CYP1A2 (PH); experiment: in vitro; conditions: human, pH 7.4; for microsomal CLint: microsomes
# Description: as §10, §11, §12, §1, §13
# [5] = cited from earlier work
# human liver microsomes [6] = conditions: cited from earlier work
# CYP3A5 = conditions: cited from earlier work
# CYP3A7 = conditions: cited from earlier work
# human liver microsomes [7] = experiment: AFB1 inhibition assays in HLM, both contributions combined; type: in vitro ADME
# CYP3A4 [8] = conditions: cited from earlier work
# [9] = cited from earlier work; remark: listed apart in the source
# CYP1A2 [10] = biological target: T1, CYP1A2 (Homo sapiens, UniProt P05177)
# T1 sequence (P05177 whole entry): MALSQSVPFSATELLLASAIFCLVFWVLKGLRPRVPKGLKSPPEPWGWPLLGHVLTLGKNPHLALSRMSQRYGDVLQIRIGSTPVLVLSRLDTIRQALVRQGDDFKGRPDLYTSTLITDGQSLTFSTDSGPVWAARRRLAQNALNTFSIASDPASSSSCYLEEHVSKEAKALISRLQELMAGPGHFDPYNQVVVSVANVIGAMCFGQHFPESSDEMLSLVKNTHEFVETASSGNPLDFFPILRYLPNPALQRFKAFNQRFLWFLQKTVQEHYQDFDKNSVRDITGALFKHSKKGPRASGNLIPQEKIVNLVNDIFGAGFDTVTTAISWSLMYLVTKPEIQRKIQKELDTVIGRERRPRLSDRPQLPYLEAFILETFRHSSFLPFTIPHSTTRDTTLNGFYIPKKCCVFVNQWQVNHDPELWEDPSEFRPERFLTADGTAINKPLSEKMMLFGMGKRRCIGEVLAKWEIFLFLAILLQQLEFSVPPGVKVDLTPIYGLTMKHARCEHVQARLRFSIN
# Description: as §1, §2, §3, §4, §5, §6, §7, §8, §9
# CYP3A4/3A5 = type: in vitro ADME, human
# CYP1A2 [11] = biological target: T1, CYP1A2; design: tissue Corning; host or cells: human liver microsomes, UltraPool HLM 150, mixed gender; conditions: cited from earlier work
# CYP1A2 [12] = biological target: T1, CYP1A2; experiment: AFB1 inhibition assay in HLM with α-naphthoflavone; type: in vitro ADME; design: tissue Corning; host or cells: human liver microsomes, UltraPool HLM 150, mixed gender
# [13] = HLM pool of 16.0 donors, ref Kazmi, 2015
molecule,measurement,setting,value
"Cc1ncc2n1-c1ccc(Cl)cc1C(c1ccccc1F)=NC2 [MDZ, midazolam, reference compound]",fraction unbound,[1],0.907
same,Km,CYP3A4 [2]; human,3.2 µM
same,Vmax,"CYP3A4 [2]; human, pH 7.4",14.1 pmol/min/pmol P450
same,"CLH,B calculated (hepatic blood clearance, AAF corrected)","[3]; human, pH 7.4",44.1 L/h
same,"CLH,p calculated (hepatic plasma clearance)","[3]; human, pH 7.4",26.6 L/h
same,"CLH,u,int (whole liver)","[3]; human, pH 7.4","1,941 L/h"
same,"calculated CLH,B compared to literature","[3]; human, pH 7.4",≤ 1.00 fold
same,microsomal CLint,[4],445 µL/min/mg
same,Km,[4],2.15 µM
same,"CLH,p literature",[5]; ref Persson et al. (1987),29.0 L/h^d
same,"CLH,u,int (whole liver)",human liver microsomes [6],"2,700 L/h"
aflatoxin B1 [AFB1],"CLH,B calculated (hepatic blood clearance, ISEF and AAF corrected)",CYP3A4 [2],47.7 L/h
same,"CLH,B from supersomes relative to CLH,B from HLM (CYP3A4)",CYP3A4 [2],1.19 fold
same,"CLH,p calculated",CYP3A4 [2],49.1 L/h
same,"CLH,u,int",CYP3A4 [2],755 L/h
same,"CLH,u,int,AAF",CYP3A4 [2],634 L/h
same,Km,CYP3A4 [2],49.6 µM
same,"Vmax,ISEF",CYP3A4 [2],5.97 nmol/mg/min
same,"Vmax,ISEF (ISEF corrected Vmax)",CYP3A4 [2],43.6 pmol/min/pmol P450
same,"CLH,B calculated (hepatic blood clearance, AAF corrected), CYP3A4",[3],40.0 L/h and 40.0^CYP3A4 L/h
same,"CLH,p calculated, CYP1A2",[3],39.6 L/h
same,"CLH,p calculated, CYP3A4",[3],41.2 L/h
same,"CLH,u,int (whole liver)",[3],"1,190 L/h"
same,"CLH,u,int (whole liver), CYP1A2",[3],583^CYP1A2 L/h
same,"CLH,u,int (whole liver), CYP3A4",[3],535^CYP3A4 L/h
same,"CLH,u,int,AAF",[3],450^CYP3A4 L/h and 420^CYP1A2 L/h
same,Km,[3],40.9 µM
same,"CLint,in vitro",[3]; human,282 µL/min/mg
same,CYP3A5 contribution,CYP3A5,4–15%
same,CYP3A7 contribution,CYP3A7,5–7%
same,"contribution ascribed to other enzymes, expectedly CYP2A13",human liver microsomes [7],6.0%
same,sum of CYP3A4/5 and CYP1A2 contributions,human liver microsomes [7],94%
same,"Vmax (AFBO or AFQ1 formation), range",human liver microsomes [6],"236–11,281 pmol/(mg.min)"
same,Km,"human liver microsomes [6]; read-out: Km (AFBO or AFQ1 formation), range",90 to 1720 µM
same,CYP3A4 contribution,CYP3A4 [8],79–95%
same,Km,CYP3A4 [8]; read-out: Km for the AFBO formation via CYP3A4,133 µM
same,Km,CYP3A4 [8]; read-out: Km for the AFM1 formation via CYP3A4,139 µM
same,"fu,B (free fraction in blood)",[9],0.160^b
same,"CLH,B calculated (hepatic blood clearance, ISEF and AAF corrected)",CYP1A2 [10],56.1 L/h
same,"CLH,B from EasyCYP bactosomes relative to CLH,B from HLM (CYP1A2)",CYP1A2 [10],1.46 fold
same,"CLH,p calculated",CYP1A2 [10],57.8 L/h
same,"CLH,u,int",CYP1A2 [10],"1,295 L/h"
same,"CLH,u,int,AAF",CYP1A2 [10],932 L/h
same,Km,CYP1A2 [10],58.2 µM
same,"Vmax,ISEF",CYP1A2 [10],14.7 nmol/mg/min
same,CYP3A4/5 contribution to AFB1 metabolism,CYP3A4/3A5,45%
same,CYP1A2 contribution,CYP1A2 [11],1–5%
same,contribution of CYP1A2,CYP1A2 [11],95%
same,Km,CYP1A2 [11]; read-out: Km for the AFBO formation via CYP1A2,41 µM
same,Km,CYP1A2 [11]; read-out: Km for the AFM1 formation via CYP1A2,29 µM
same,CYP1A2 contribution to AFB1 metabolism,CYP1A2 [12],49%
"CCOc1ccc(NC(C)=O)cc1 [PH, phenacetin, reference compound]","CLH,p calculated (hepatic plasma clearance)","[3]; HLM, probe substrates, CLH,B x B:P",21.9 L/h
same,"CLH,B calculated (hepatic blood clearance, AAF corrected)","[3]; HLM, probe substrates, QH 90 L/h, Equation 9",21.7 L/h
same,"calculated CLH,B compared to literature","[3]; HLM, MDZ vs Kazmi, 2015, PH vs Shibata et al., 2002",≤ 1.04 fold
same,"CLH,u,int (whole liver)","[3]; HLM, MPPGL 40 mg/g, LW 1,650 g, Equation 4",84.74 L/h
same,microsomal CLint,[4],21.4 µL/min/mg
same,Km,[4],40 µM
same,"CLH,B literature (in vivo human hepatic blood clearance)",[5]; ref Shibata et al. (2002),20.8 L/h
same,"CLH,u,int (whole liver)",human liver microsomes [6]; [13],92.00 L/h
same,"CLint,in vitro",human liver microsomes [6]; [13],23.3 µL/min/mg
same,"CLint,in vitro","human liver microsomes [6]; HLM pool of 105 donors, ref Gao et al., 2017",14.5 µL/min/mg
same,Km,human liver microsomes [6],10 to 62 µM
same,Vmax,CYP1A2 [10]; CYP1A2 bactosomes,11.6 pmol/min/pmol P450
